Patent US20080279912A1, “Use of Cis-Epoxyeicosatrienoic Acids And Inhibitors of Soluble Epoxide Hydrolase to Alleviate Eye Disorders” (Regents of the University of California Office of …, priority 2005, published 2008)

How the values were obtained:
[1] = system: New Zealand white rabbits; assay: Intraocular pressure in rabbits after treatment of the eye (tonometer); type: in vivo; conditions: one rabbit per treatment, 50 μL/eye; for Change in intraocular pressure (IOP treated eye minus control eye) after topical instillation: 100 μg/mL in artificial tears with 1% DMSO; for Time after treatment at which IOP decline appeared: 100 μg/mL, topical
Procedure: Female New Zealand white rabbits (2.7-3.0 kg) were obtained from Harlan (Indianapolis, Ind.). On test day, rabbits were lightly tranquilized with torbugesic/acepromazine at 0.04 mg/kg, administered subcutaneously. Ten to twenty minutes after administration of the tranquilizer, a drop of proparacaine hydrochloride (0.5% ophthalmic solution) was instilled in each eye to numb the eye prior to taking the intraocular pressure measurement. After 2-5 min, intraocular pressure in each eye (right and left) was measured using a tonometer (Tono-Pen®, Mentor Opthalmics, Santa Barbara, Calif.). Measurements were taken every 3-5 minutes to obtain baseline pressure. Then various treatments were applied (right eye) and after 3-5 minutes measurements were again taken every 3-5 minutes. Data are expressed as the change in intraocular pressure (“IOP”) in the treated eye compared to the control eye (IOP in treated eye—IOP in control eye). […] DMSO is also known to aid penetration through the skin. For a treatment to be effective, it must penetrate the cornea. Later treatments utilized subconjunctival injection. This delivers the compound below the conjunctiva where it is rapidly absorbed, avoiding issues of absorption.
Treatments: Each rabbit was administered one of the following treatments: (1). Epoxyeicosatrienoic acids (EETs) only, 100 μg/mL carboxylmethyl cellulose artificial tears containing 1% dimethyl sulfoxide (DMSO), 50 μL/eye (2). […] EETs only, 10 μg/mL carboxylmethyl cellulose artificial tears containing 1% DMSO, 0.1 cc/eye administered subconjunctivally (4).
Compounds used for the topical treatment of eye diseases become clinically useful only if they can penetrate the intact epithelium of the cornea and conjunctiva and achieve clinically useful concentrations within the eye. Thus for these trials we used both instillation by drops and by subconjunctival injections.

[2] = Stability of EETs on storage, handling and administration; type: physicochemical; conditions: if not exposed to acidic conditions or to sEH
[3] = molecular target: T1, sEH (Homo sapiens, UniProt P34913); assay: Inhibition of sEH (standard assays, stated in text); type: biochemical
T1 sequence (P34913 1-555): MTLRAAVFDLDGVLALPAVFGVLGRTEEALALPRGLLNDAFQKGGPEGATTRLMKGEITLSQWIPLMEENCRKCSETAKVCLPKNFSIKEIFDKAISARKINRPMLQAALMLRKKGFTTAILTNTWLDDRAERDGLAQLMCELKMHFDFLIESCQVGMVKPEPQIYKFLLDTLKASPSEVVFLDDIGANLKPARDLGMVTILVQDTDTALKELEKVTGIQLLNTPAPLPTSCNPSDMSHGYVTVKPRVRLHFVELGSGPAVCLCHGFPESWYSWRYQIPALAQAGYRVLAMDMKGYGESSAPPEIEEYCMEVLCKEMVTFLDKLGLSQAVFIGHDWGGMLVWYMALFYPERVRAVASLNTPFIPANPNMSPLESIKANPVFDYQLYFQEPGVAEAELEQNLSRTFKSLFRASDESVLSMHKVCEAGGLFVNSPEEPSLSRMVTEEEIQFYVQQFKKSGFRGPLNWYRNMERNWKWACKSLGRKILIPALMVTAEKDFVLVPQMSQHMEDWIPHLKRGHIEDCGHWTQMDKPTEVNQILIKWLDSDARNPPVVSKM
Description: Derivatives of urea are transition state mimetics that form a preferred group of sEH inhibitors. […] Any particular urea derivative or other compound can be easily tested for its ability to inhibit sEH by standard assays, such as those discussed herein. The production and testing of urea and carbamate derivatives as sEH inhibitors is set forth in detail in, for example, Morisseau et al., Proc Natl Acad Sci (USA) 96:8849-8854 (1999).
Any of a number of standard assays for determining epoxide hydrolase activity can be used to determine inhibition of sEH. […] Suitable in vitro assays are described in Zeldin et al., J. Biol. Chem. 268:6402-6407 (1993). Suitable in vivo assays are described in Zeldin et al., Arch Biochem Biophys 330:87-96 (1996).

[4] = Metabolic stability; type: in vitro ADME

Row | Compound | Change in intraocular pressure (IOP treated eye minus control eye) after topical instillation [1] | Time after treatment at which IOP decline appeared [1] | Stability [2] | Activity as an inhibitor of sEH [3] | Metabolic stability [4]
1 | cis-Epoxyeicosatrienoic acids [EETs] | definite declining trend | about 45 minutes | stable |  | 
2 | O=C(O)CCCCCCCCCCCNC(=O)NC12CC3CC(CC(C3)C1)C2 [AUDA, 12-(3-Adamantan-1-yl-ureido)dodecanoic acid] | distinct decline in pressure | about 20 minutes |  |  | 
3 | CCCCCCCCCCCCNC(=O)NC12CC3CC(CC(C3)C1)C2 [ADU, N-Adamantyl-N′-dodecyl urea] |  |  |  | particularly high activity | metabolically stable
